# Data as given in patent US20250057826A1, “WEEKLY REGIMEN FOR HIV” (Gilead Sciences, Inc., priority 2023, published 2025).
# Key:
# [1] = pharmacokinetics following single-dose administration of oral LEN 50-1800 mg; type: in vivo; settings: single-dose oral LEN 50-1800 mg
# [2] = 2-compartment LEN population pharmacokinetic (PopPK) model from pooled clinical PK data (IV/oral/SC LEN); type: in vivo, human; settings: column HTE
# Source text: PK data were pooled from several clinical studies in healthy participants and people with HIV-1 who received intravenous (IV)/oral/SC LEN and a 2-compartment LEN population pharmacokinetic (PopPK) model with first-order absorption and linear elimination was built to simulate various weekly dosing regimens (loading+maintenance doses) that can achieve efficacious LEN concentrations rapidly and be maintained through the dosing interval. Various scenarios including 1-3 weeks of missed oral dosing were simulated to evaluate the forgiveness window; these simulations were performed with the PopPK model incorporating variability and covariate effects. The model pharmacokinetic parameters for lenacapavir are provided in Table 1 where CL=clearance; Fpo=oral bioavailability; Fsc=SC bioavailability; GI=gastrointestinal; HTE=heavily treatment experienced; IIV=interindividual variability; Ka=absorption rate constant; Kdir=direct absorption rate constant; Ktr=transit absorption rate constant; PK=pharmacokinetic; Q=intercompartmental CL; Vc=volume of central compartment; Vp=volume of peripheral compartment.
# [3] = test system: MT-4 cells; test: in vitro protein-adjusted 95% effective concentration derived from MT-4 cells (inhibitory quotient 4); type: cell-based; settings: 4-fold greater than in vitro protein-adjusted 95% effective concentration from MT-4 cells
# [4] = test system: HIV-1; test: virologic suppression in Phase 2/3 clinical studies; type: in vivo, human; settings: at mean trough concentration of 15.5 ng/mL (IQ4)
compound,measurement,setting,value
"CC(C)(C#Cc1ccc(-c2ccc(Cl)c3c(NS(C)(=O)=O)nn(CC(F)(F)F)c23)c([C@H](Cc2cc(F)cc(F)c2)NC(=O)Cn2nc(C(F)(F)F)c3c2C(F)(F)[C@@H]2C[C@H]32)n1)S(C)(=O)=O [lenacapavir, N—((S)-1-(3-(4-chloro-3-(methylsulfonamido)-1-(2,2,2-trifluoroethyl)-1H-indazol-7-yl)-6-(3-methyl-3-(methylsulfonyl)but-1-yn-1-yl)pyridin-2-yl)-2-(3,5-difluorophenyl)ethyl)-2-((3bS,4aR)-5,5-difluoro-3-(trifluoromethyl)-3b,4,4a,5-tetrahydro-1H-cyclopropa[3,4]cyclopenta[1,2-c]pyrazol-1-yl)acetamide]",half-life,"[1]; human, plasma",10 to 13 days
same,oral LEN exposure increase with dose,[1],less than dose proportionally
same,θ11: dose effect on Fpo,[2]; PopPK covariate effect,−0.414
same,θ16: HV effect on Vp,[2]; PopPK covariate effect,1.35
same,θ19: pharmacoenhancer/booster effect on Fpo,[2]; PopPK covariate effect,0.534
same,θ20: SC 150 mg/mL effect on Vp,[2]; PopPK covariate effect,−0.795
same,θ21: SC 150 mg/mL effect on Ktr,[2]; PopPK covariate effect,0.433
same,θ10: Fsc relative to IV,"[2]; PopPK model parameter, SC bioavailability",1.02
same,θ6: SC Ktr,"[2]; PopPK model parameter, SC",0.00202 h⁻¹
same,θ7: SC Kdir,"[2]; PopPK model parameter, SC",0.0038 h⁻¹
same,θ8: SC fraction for direct absorption,"[2]; PopPK model parameter, SC",0.421
same,θ2: Vc,[2]; PopPK model parameter,67.9 L
same,θ4: Vp,[2]; PopPK model parameter,908 L
same,θ5: Q,[2]; PopPK model parameter,41.2 L/h
same,θ9: Fpo relative to IV,"[2]; PopPK model parameter, oral bioavailability",0.0627
same,θ3: PO Ka,"[2]; PopPK model parameter, oral",0.0286 h⁻¹
same,σ1: residual proportion variability,[2]; PopPK residual error,27.3% CV
same,σ2: residual additive,[2]; PopPK residual error,0.05 ng/mL
same,θ15: weight effect on Vc and Vp,[2]; fixed allometric exponent,1
same,clearance,"[2]; human, plasma, other: pooled intravenous, oral and subcutaneous, PopPK model parameter, read-out: θ1: CL (converted)",60.3 mL/min
same,ω11: IIV on CL,[2]; interindividual variability,43.2 % CV
same,ω22: IIV on Vc,[2]; interindividual variability,0% CV
same,ω33: IIV on Vp,[2]; interindividual variability,85.4 % CV
same,ω44: IIV on Ktr,[2]; interindividual variability,32.4 % CV
same,ω55: IIV on Ka,[2]; interindividual variability,78.4 % CV
same,ω66: IIV on Kdir,[2]; interindividual variability,0% CV
same,ω77: IIV on Fsc,[2]; interindividual variability,38.9% CV
same,inhibitory quotient 4 (IQ4) mean trough concentration,[3],15.5 ng/mL
same,virologic suppression,[4],high rates of virologic suppression
